Holding throughout (assay): NCI tumour cell line growth inhibition, 48 h
Test [1] relates to SN12C renal.
Test [2] relates to MALME-3M melanoma.
The subject of test [3] is NCI-H226 lung.
The subject of test [4] is K-562 leukemia.
Test [5] has as its system SW-620 colon.
For test [6], the system named is A498 renal.
The test system of test [7] is CAKI-1 renal.
The test system of test [8] is HL-60(TB) leukemia.
The subject of test [9] is OVCAR-3 ovarian.
Test [10] has as its system M14 melanoma.

Values joined by “and” are separate entries in the source; they are usually repeats but may differ in a detail not shown here. Identical values can stand only once.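 Following 48 hours of exposure in 96-well plates, responses at five concentrations were used to interpolate endpoints linearly. At the GI50, growth is halved. The concentration for full growth arrest is given as TGI.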 Some results are limits rather than exact numbers.

Regarding `COc1cc(/C=N/N=C(\N)NO)ccc1O`, the TGI in test [1] was above 100 µM; in test [2] it was above 100 µM; in test [3] it was 85.9 µM; in test [4] it was above 100 µM; in test [5], above 100 µM; in test [6], above 100 µM. Also, the TGI in test [7] is above 100 µM.

With `CCN(CC)CCCC(C)Nc1c2ccc(Cl)cc2nc2cc(Cl)ccc12` (stereo unspecified), the TGI in [1] came out at 17.3 µM; in [2], 25.5 µM; in test [8] it was 4.6 µM; in test [3], 9.76 µM; in test [4] it was 5.05 µM; in test [5], 12.5 µM. Further, the figures for the TGI in [6], in [9] and in [7] were 21.9 µM, 13.4 µM and 10.7 µM, respectively.

In the case of `CC(C)C(=O)Nc1ccc(-c2nc(-c3cccc(OCCN4CCOCC4)c3)c(-c3ccnc(Br)c3)[nH]2)cc1`, the GI50 in [1] is 4.46 µM; in [2], 1.58 µM; in test [3] it was 3.79 µM; in test [5] it was 2.87 µM; in test [6] it was 1.6 µM; in test [9] it was 4.24 µM. The GI50 in test [7] is 2.3 µM; in [10], 1.93 µM. Moreover, the TGI is above 100 µM in [1]; 3.3 µM in test [2]; 19.8 µM in test [3]; 8.59 µM in test [5]; 4.74 µM in [6]; above 100 µM in test [9]. Moreover, the values for the TGI in [7] and in test [10] were 7.01 µM and 4.46 µM, respectively.

`OC(c1ccccc1)C1CC2C=CC1C2` (stereo unspecified): the TGI in test [1], in [2], in [8], in test [4], in [5] and in test [6] was above 100 µM in each case. The TGI in test [9], in test [7] and in [10] was above 100 µM throughout.

On to `CN(CC(=O)O)CC(=O)O`, for which the TGI in test [1], in test [2], in [8], in test [3], in test [4] and in [5] was above 100 µM throughout. For the same compound, the TGI in [6], in test [9], in test [7] and in test [10] was above 100 µM each time.

On to `COc1ccc(N2C(=O)C(=O)N(C)C2=O)c2ccccc12`, for which the TGI in test [1], in test [2], in test [8], in test [3], in [4] and in [5] was above 10 µM throughout. Moreover, the TGI in test [6], in test [9], in test [7] and in [10] was above 10 µM in each case.

Take `COC1=CC(=O)c2c(c(COC(C)=O)cn2C)C1=O`: the TGI in [1] was determined as 0.325 µM; in [2], 0.117 µM; in test [8] it was 0.694 µM; in test [3] it was 0.424 µM; in test [4] it was 0.707 µM; in [5], 0.193 µM. Further, the TGI worked out at 0.586 µM in test [6], 0.395 µM in [9], 0.22 µM in test [7] and 0.195 µM in [10].

In the case of `CC[C@@]1(O)C(=O)OCc2c1cc1n(c2=O)Cc2cc3c(CN(C)C)c(O)ccc3nc2-1`, the GI50 in [1] is < 0.01 µM and 0.00456 µM and 0.0248 µM; in [2], 0.0881 µM and 0.157 µM and 0.39 µM; in [8], 0.0103 µM and 0.00542 µM; in [3] it was 0.0153 µM and 0.0964 µM and 0.0626 µM; in test [6], 0.0205 µM and 0.0299 µM; in [9], 0.107 µM and 0.124 µM and 0.551 µM. Also, the GI50 in [7] was < 0.01 µM and 0.00506 µM. Also, the TGI was 1.28 µM [middle of 4 runs] in test [3]; 1.37 µM and 7.71 µM and 2.12 µM in test [9].

Consider `CC1(CO)C(O)CCC2(C)C1C(O)CC1CC3CC12CCC3(O)CO` (stereo unspecified), for which the TGI in test [1] was above 225 µM; in test [2] it was above 225 µM; in [8], above 225 µM; in test [3] it was 224 µM; in test [4], above 225 µM; in test [5], above 225 µM. For the same compound, the TGI in [6], in [9] and in [7] was above 225 µM in each case.

With `Clc1ccc(C2CC(c3cccc(Nc4ccncc4)c3)=NN2c2ccccc2)cc1` (stereo unspecified), the GI50 is 1.78 µM in [1]; 1.58 µM in [2]; 1.71 µM in test [8]; 16.4 µM in [3]; 1.67 µM in test [4]; 1.67 µM in test [5]. Also, the GI50 is 1.43 µM in [6], 1.5 µM in [7] and 1.73 µM in test [10]. In addition, the TGI in [1] is 3.31 µM; in test [2], 3.14 µM; in [8] it was 3.87 µM; in test [3], 39.5 µM; in test [4] it was 5.45 µM; in [5], 3.34 µM. The TGI in test [6] is 3.3 µM; in [7], 2.84 µM; in [10], 3.37 µM.

Consider `O=c1ccc2c(Cl)cccc2o1`, for which the TGI in [1], in test [2], in test [8], in [3], in test [4] and in [5] was above 100 µM in each case. Further, the TGI in [6], in test [9], in test [7] and in test [10] was above 100 µM each time.

Take `CNCCCn1c2c(c3ccc(Cl)cc3c1=O)C(=O)c1cc(OC)cnc1-2`: the GI50 was 1.18 µM in test [1]; 0.601 µM in [8]; 1.35 µM in test [3]; 0.0762 µM in test [5]; 0.531 µM in test [6]; 1.41 µM in test [9]. Also, the GI50 in [7] is 0.0631 µM; in test [10] it was 0.569 µM. Also, the TGI in test [1] was 3.04 µM; in test [8] it was 2.4 µM; in test [3] it was 3.86 µM; in test [5], 1.98 µM; in [6], 9.07 µM; in [9] it was 2.78 µM. Further, the TGI in [7] turned out to be 1.78 µM; in test [10] it was 1.89 µM.

As to `CC(C)NC(=O)OCc1nnn2c1CCC2`, the TGI in [1], in test [2], in test [8], in test [4], in [5] and in [9] was above 100 µM in each case. For the same compound, the TGI in [10] is above 100 µM.

For the compound `CSC1=C(SC)C(=O)c2cn(C)c(=O)cc2C1=O`, the TGI in [1] stood at 12.3 µM; in test [2], 5.41 µM; in test [3], 40.4 µM; in test [4], 0.424 µM; in [5] it was 2.58 µM; in test [6], 28.4 µM. Besides, the values for the TGI in [9] and in [10] were 3.54 µM and 3.14 µM, respectively.

Take `CC(C(=O)NCCNC(=O)CCCC(=O)N(C)O)C(=O)NCCNC(=O)CCCC(=O)N(C)O`: the TGI in test [2], in [8], in [3], in [4], in test [5] and in test [6] was above 100 µM in each case. For the same compound, the TGI in test [9], in test [7] and in [10] was above 100 µM in each case.

Consider `CC(C)=CC1C(COC(=O)c2ccccc2Cl)C1(C)C` (stereo unspecified), for which the TGI is above 100 µM in [1]; 70.3 µM in test [2]; 67.7 µM in test [8]; 82.2 µM in [3]; above 100 µM in test [4]; above 100 µM in test [5]. Further, the TGI in test [6] was above 100 µM; in test [9], 75.8 µM; in test [7] it was above 100 µM; in test [10], above 100 µM.

As for `C1=Nc2ccccc2Cn2nncc21`, the TGI in [1], in [2], in test [8], in [3], in [4] and in test [5] was above 100 µM each time. Further, the TGI in test [9], in [7] and in test [10] was above 100 µM each time.
